From patent publication US4195171A, “Derivatives of an antibiotic XK-62-2 and process for the production thereof” (Abbott Laboratories, priority 1975, dated 1980)
Values after ≈ are worked out from the molar mass of the structure shown. Like-named read-outs stand apart in the source and are kept apart here.

How the values were obtained:
Test in all cases: Antibacterial spectrum, MIC by agar dilution method
Assay type in all cases: cell-based
Escherichia coli KY 8320 = conditions: KY8320, pH 7.2, strain produces neomycinkanamycin phosphotransferase Type I, read-out: Minimum Inhibitory Concentration
Description: (§1) XK-62-2, 1-N-[L-(-)-α-hydroxy-γ-aminobutyryl] XK-62-2, Compounds (I-1), (I-2), (II-1) and (II-2) against various Gram-negative and Gram-positive bacteria determined by agar dilution method at pH 7.2.
(§2) ^3 produces neomycinkanamycin phosphotransferase Type I

Escherichia coli KY 8349 = conditions: KY8349, pH 7.2, strain produces neomycinkanamycin phosphotransferase Type I, read-out: Minimum Inhibitory Concentration
Description: as §1, §2

[1] = system: Pseudomonas aeruginosa KY 8518; conditions: KY8518, pH 7.2, strain produces neomycinkanamycin phosphotransferase Type I, read-out: Minimum Inhibitory Concentration
Description: as §1, §2

Serratia sp T-55 = system: Serratia sp T-55
Description: as §1

[2] = system: Pseudomonas aeruginosa BMH 1; conditions: BMH1, pH 7.2, read-out: Minimum Inhibitory Concentration
Description: as §1

[3] = system: bacillus subtilis ATCC 6633; conditions: ATCC6633, pH 7.2, read-out: Minimum Inhibitory Concentration
Description: as §1

[4] = system: Streptococcus faecalis ATCC 10541; conditions: Enterococcus faecalis, ATCC10541, pH 7.2, read-out: Minimum Inhibitory Concentration
Description: as §1

[5] = system: Pseudomonas aeruginosa No. 12; conditions: pH 7.2, read-out: Minimum Inhibitory Concentration
Description: as §1

[6] = system: Klebsiella pneumoniae No. 8045; conditions: pH 7.2, read-out: Minimum Inhibitory Concentration
Description: as §1

[7] = system: Shigella sonnei ATCC 9290; conditions: ATCC9290, pH 7.2, read-out: Minimum Inhibitory Concentration
Description: as §1

Escherichia coli T-2 = conditions: T2, pH 7.2, read-out: Minimum Inhibitory Concentration
Description: as §1

[8] = system: Salmonella typhimurium E-9; conditions: Salmonella enterica, pH 7.2, read-out: Minimum Inhibitory Concentration
Description: as §1

[9] = system: Pseudomonas aeruginosa E-2; conditions: E2, agar dilution, pH 7.2, read-out: Minimum Inhibitory Concentration
Description: as §1

Proteus vulgaris 6897 = conditions: pH 7.2, read-out: Minimum Inhibitory Concentration
Description: as §1

Proteus morganii KY 4298 = conditions: Morganella morganii, KY4298; agar dilution, pH 7.2; read-out: Minimum Inhibitory Concentration
Description: as §1

[10] = system: Pseudomonas aeruginosa NC-5; conditions: NC5, agar dilution, pH 7.2, read-out: Minimum Inhibitory Concentration
Description: as §1

Proteus rettgeri KY 4288 = conditions: Providencia rettgeri, KY4288, pH 7.2, read-out: Minimum Inhibitory Concentration
Description: as §1

Escherichia coli Juhl = conditions: agar dilution, pH 7.2, read-out: Minimum Inhibitory Concentration
Description: as §1

Sarcina lutea ATCC 9341 = conditions: Micrococcus luteus, ATCC9341, pH 7.2, read-out: Minimum Inhibitory Concentration
Description: as §1

[11] = system: Pseudomonas aeruginosa KY 8511; conditions: KY8511, pH 7.2, strain produces gentamicin acetyltransferase Type I, read-out: Minimum Inhibitory Concentration
Description: as §1
(§3) ^2 produces gentamicin acetyltransferase Type I

Escherichia coli KY 8348 = conditions: KY8348, pH 7.2, strain produces gentamicin acetyltransferase Type I, read-out: Minimum Inhibitory Concentration
Description: as §1, §3

[12] = system: Pseudomonas aeruginosa KY Z-444; conditions: KYZ444, agar dilution, pH 7.2, strain produces 6N-acetyltransferase Type III, read-out: Minimum Inhibitory Concentration
Description: as §1
(§4) ^8 produces 6N-acetyltransferase Type III

[13] = system: Pseudomonas aeruginosa Z-445; conditions: Z445, pH 7.2, strain produces 6N-acetyltransferase Type III, read-out: Minimum Inhibitory Concentration
Description: as §1, §4

Escherichia coli KY 8321 = conditions: KY8321, pH 7.2, strain produces gentamicin adenyltransferase and neomycinkanamycin phosphotransferase Type II, read-out: Minimum Inhibitory Concentration
Description: as §1
^5 produces gentamicin adenyltransferase and neomycinkanamycin
phosphotransferase Type II

[14] = system: Klebsiella pneumoniae Y-58; conditions: Y58, pH 7.2, strain produces gentamicin adenyltransferase, read-out: Minimum Inhibitory Concentration
Description: as §1
(§5) ^4 produces gentamicin adenyltransferase

[15] = system: Escherichia coli KY Z-338; conditions: KYZ338, pH 7.2, strain produces gentamicin adenyltransferase, read-out: Minimum Inhibitory Concentration
Description: as §1, §5

[16] = system: Klebsiella pneumoniae Y-60; conditions: Y60, pH 7.2, strain produces gentamicin adenyltransferase, read-out: Minimum Inhibitory Concentration
Description: as §1, §5

Providencia sp. 164 = conditions: pH 7.2, strain produces gentamicin acetyltransferase Type II, read-out: Minimum Inhibitory Concentration
Description: as §1
^9 produces gentamicin acetyltransferase Type II

[17] = system: Pseudomonas aeruginosa KY 8563; conditions: KY8563, agar dilution, pH 7.2, strain produces gentamicin acetyltransferase Type III, read-out: Minimum Inhibitory Concentration
Description: as §1
^7 produces gentamicin acetyltransferase Type III

[18] = system: Pseudomonas aeruginosa KY 8519
Description: as §1
(§6) ^6 produces neomycinkanamycin phosphotransferase Type I and Type II

[19] = system: Pseudomonas aeruginosa KY 8512; conditions: KY8512, pH 7.2, strain produces neomycinkanamycin phosphotransferase Type I and Type II, read-out: Minimum Inhibitory Concentration
Description: as §1, §6

| Structure (SMILES) | MIC (Escherichia coli KY 8320) | MIC (Escherichia coli KY 8349) | MIC [1] | MIC [2] | MIC [3] | MIC [4] | MIC [5] | MIC [6] | MIC [7] | MIC (Escherichia coli T-2) | MIC [8] | MIC [9] | MIC (Proteus vulgaris 6897) | MIC (Proteus morganii KY 4298) | MIC [10] | MIC (Proteus rettgeri KY 4288) | MIC (Escherichia coli Juhl) | MIC (Sarcina lutea ATCC 9341) | MIC [11] | MIC (Escherichia coli KY 8348) | also measured |
| --- | --- | --- | --- | --- | --- | --- | --- | --- | --- | --- | --- | --- | --- | --- | --- | --- | --- | --- | --- | --- | --- |
| CC1(O)COC(OC2C(NC(=O)C(O)CN)CC(N)C(OC3OC(CN)CCC3N)C2O)C(O)C1N (racemic) [Compound I-1, 3"-N, 6'-N-didemethyl-1-N-(DL-α-hydroxy-β-aminopropionyl) XK-62-2] | 0.78 mg/L (≈ 1.49 µM) | 0.4 mg/L (≈ 0.765 µM) | 0.78 mg/L (≈ 1.49 µM) | 0.78 mg/L (≈ 1.49 µM) | 0.1 mg/L (≈ 0.191 µM) | 12.5 mg/L (≈ 23.9 µM) | 0.4 mg/L (≈ 0.765 µM) | 0.4 mg/L (≈ 0.765 µM) | 3.12 mg/L (≈ 5.97 µM) | 1.56 mg/L (≈ 2.99 µM) | 0.78 mg/L (≈ 1.49 µM) | 1.56 mg/L (≈ 2.99 µM) | 6.25 mg/L (≈ 12 µM) | 1.56 mg/L (≈ 2.99 µM) | 0.78 mg/L (≈ 1.49 µM) | 0.78 mg/L (≈ 1.49 µM) | 1.56 mg/L (≈ 2.99 µM) | 0.78 mg/L (≈ 1.49 µM) | 0.78 mg/L (≈ 1.49 µM) | 0.4 mg/L (≈ 0.765 µM) | MIC (Serratia sp T-55; T55, pH 7.2, read-out: Minimum Inhibitory Concentration): 3.12 mg/L (≈ 5.97 µM); MIC [12]: 1.56 mg/L (≈ 2.99 µM); MIC [13]: 6.25 mg/L (≈ 12 µM); MIC (Escherichia coli KY 8321): 1.56 mg/L (≈ 2.99 µM); MIC [14]: 0.78 mg/L (≈ 1.49 µM); MIC [15]: 0.78 mg/L (≈ 1.49 µM); MIC [16]: 0.78 mg/L (≈ 1.49 µM); MIC (Providencia sp. 164): 6.25 mg/L (≈ 12 µM); MIC [17]: 1.56 mg/L (≈ 2.99 µM); MIC ([18]; KY8519, pH 7.2, read-out: Minimum Inhibitory Concentration): 3.12 mg/L (≈ 5.97 µM); MIC [19]: 0.78 mg/L (≈ 1.49 µM) |
| CNCC1CCC(N)C(OC2C(N)CC(NC(=O)C(O)CCN)C(OC3OCC(C)(O)C(NC)C3O)C2O)O1 (single isomer, unassigned) [1-N-[L-(-)-α-hydroxy-γ-aminobutyryl] XK-62-2, reference compound] | 0.2 mg/L (≈ 0.354 µM) | 0.1 mg/L (≈ 0.177 µM) | 1.56 mg/L (≈ 2.76 µM) | 0.78 mg/L (≈ 1.38 µM) | 0.1 mg/L (≈ 0.177 µM) | 6.25 mg/L (≈ 11.1 µM) | 0.4 mg/L (≈ 0.708 µM) | 0.2 mg/L (≈ 0.354 µM) | 0.78 mg/L (≈ 1.38 µM) | 0.4 mg/L (≈ 0.708 µM) | 0.2 mg/L (≈ 0.354 µM) | 3.12 mg/L (≈ 5.53 µM) | 1.56 mg/L (≈ 2.76 µM) | 0.78 mg/L (≈ 1.38 µM) | 3.12 mg/L (≈ 5.53 µM) | 0.78 mg/L (≈ 1.38 µM) | 0.4 mg/L (≈ 0.708 µM) | 0.2 mg/L (≈ 0.354 µM) | 1.56 mg/L (≈ 2.76 µM) | 0.1 mg/L (≈ 0.177 µM) | MIC (Serratia sp T-55; T55, agar dilution, pH 7.2, read-out: Minimum Inhibitory Concentration): 0.78 mg/L (≈ 1.38 µM); MIC [12]: 1.56 mg/L (≈ 2.76 µM); MIC [13]: 6.25 mg/L (≈ 11.1 µM); MIC (Escherichia coli KY 8321): 0.2 mg/L (≈ 0.354 µM); MIC [14]: 0.2 mg/L (≈ 0.354 µM); MIC [15]: 0.2 mg/L (≈ 0.354 µM); MIC [16]: 0.2 mg/L (≈ 0.354 µM); MIC (Providencia sp. 164): 6.25 mg/L (≈ 11.1 µM); MIC [17]: 6.25 mg/L (≈ 11.1 µM); MIC ([18]; KY8519, agar dilution, pH 7.2, strain produces neomycinkanamycin phosphotransferase Type I and Type II, read-out: Minimum Inhibitory Concentration): 6.25 mg/L (≈ 11.1 µM); MIC [19]: 1.56 mg/L (≈ 2.76 µM) |
